Results published in article PMC3771683 (Analytical chemistry, 2013).
pIC50: −log10 of the molar value.

Key:
[1] = tested on: Mapk, Akt, and Rps6ka1 kinases; format: cell-based; conditions: MCF 10A cells treated with EGF or lapatinib vs DMSO; Western blotting and KAYAK
Tp53rk = target: T1, Tp53rk (Homo sapiens, UniProt Q96S44); assay: AAP protein-level capture with TMT, staurosporine competition in HeLa lysate; format: binding
T1 sequence (Q96S44 1-253): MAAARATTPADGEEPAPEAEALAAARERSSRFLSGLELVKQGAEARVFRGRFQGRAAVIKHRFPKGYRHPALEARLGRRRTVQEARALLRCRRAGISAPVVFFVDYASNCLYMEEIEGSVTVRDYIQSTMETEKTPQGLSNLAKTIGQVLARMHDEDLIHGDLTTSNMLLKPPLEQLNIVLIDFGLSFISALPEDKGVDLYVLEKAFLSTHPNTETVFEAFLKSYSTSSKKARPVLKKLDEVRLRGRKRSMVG

Row | Compound | activation of Mapk, Akt, and Rps6ka1 kinases [1] | pIC50 (Tp53rk)
1 | CS(=O)(=O)CCNCc1ccc(-c2ccc3ncnc(Nc4ccc(OCc5cccc(F)c5)c(Cl)c4)c3c2)o1 [lapatinib] | inhibition when lapatinib was present | –
2 | CN[C@@H]1C[C@H]2O[C@@](C)([C@@H]1OC)n1c3ccccc3c3c4c(c5c6ccccc6n2c5c31)C(=O)NC4 [staurosporine] | – | 4.14
3 | EGF: stimulates EGFR and numerous downstream kinases | substantial activation | –
